Reference: US20100029646A1, “PRODRUGS OF DIPHENYL OX-INDOL-2-ONE COMPOUNDS” (Topo Target A/S, priority 2006, published 2010)

Row | melting point [°C] | Structure (SMILES)
1 | 163 to 165 | O=C(Nc1ccccc1)Oc1ccc(C2(c3ccc(OC(=O)Nc4ccccc4)cc3)C(=O)Nc3c2ccc(F)c3F)cc1
2 | 80 to 83 | O=C1N(CCO)c2c(ccc(F)c2F)C1(c1ccc(O)cc1)c1ccc(F)cc1 (stereo not drawn) [Compound 1007, 6,7-Difluoro-3-(4-fluorophenyl)-1-(2-hydroxyethyl)-3-(4-hydroxyphenyl)-1,3-dihydro-2H-indol-2-one]
3 | 174 to 175 | O=C(CCN1CCOCC1)Oc1ccc(C2(c3ccc(F)cc3)C(=O)Nc3c2ccc(F)c3F)cc1 (stereo not drawn) [Compound 1009, 4-[6,7-Difluoro-3-(4-fluorophenyl)-2-oxo-2,3-dihydro-1H-indol-3-yl]phenyl 3-morpholinopropanoate]
4 | 149 to 151 | CN1CCN(CCC(=O)Oc2ccc(C3(c4ccc(F)cc4)C(=O)Nc4c3ccc(F)c4F)cc2)CC1 (stereo not drawn) [Compound 1010, 4-[6,7-Difluoro-3-(4-fluorophenyl)-2-oxo-2,3-dihydro-1H-indol-3-yl]phenyl 3-(4-methylpiperazino)propanoate]
5 | 63 to 65 | COc1ccc(C2(c3ccc(OCOC(=O)OC(C)C)cc3)C(=O)N(COC(=O)OC(C)C)c3ccccc32)cc1 (stereo not drawn) [Compound 1011, [3-(4-{[(Isopropoxycarbonyl)oxy]methoxy}phenyl)-3-(4-methoxyphenyl)-2-oxo-2,3-dihydro-1H-indol-1-yl]methyl isopropyl carbonate]
6 | 223 to 225 | C=CC(=O)Oc1ccc(C2(c3ccc(F)cc3)C(=O)Nc3c2ccc(F)c3C)cc1 (stereo not drawn) [Compound 1016, 4-[6-Fluoro-3-(4-fluorophenyl)-7-methyl-2-oxo-2,3-dihydro-1H-indol-3-yl]phenyl acrylate]
